Assay results from patent US11104657B2, “Notch inhibitors for use in the treatment of t-cell acute lymphoblastic leukemia” (UNIVERSITÀ DEGLI STUDI DI ROMA “LA SAPIENZA”, priority 2016, dated 2021).
Read-outs that look alike come from different tables or passages of the source.

Legend:
DND41 cells = assay: MTS cell proliferation assay (IG50), DND41; type: cell-based, human; conditions: for effect on cell proliferation: doses of up to 50 μM
Description: In order to evaluate the biological implications of the compounds, their effect on cell proliferation/vitality was tested by determining the relative concentrations of growth inhibition (IG50) by means of the MTS cellular assay.
The cell lines DND41 (ACC 525, DSMZ, Braunschweig, GERMANY), KOPTK1 (RRID: CVCL_4965) were maintained in culture in RPMI-1640 (Gibco, Carlsbad, Calif., USA) with 10% fetal bovine serum. TALL-1 cells (ACC-521: DSMZ, Braunschweig, GERMANY) were cultured in RPMI-1640 (Gibco, Carlsbad, Calif., USA) supplemented with 20% fetal bovine serum, while HaCaT cells (ACC-771: DSMZ, Braunschweig, GERMANY) were maintained in Eagle's culture medium according to Dulbecco (Gibco, Carlsbad, Calif., USA) containing 10% fetal bovine serum. Cells were treated with the naturally-occurring compounds A-H or with compounds 1-17 for times and concentrations indicated in the text.
Cells were seeded in 96-well plates with a density of 5×10^5 cells/ml (5×10^4 cells per well) and treated for the times and the concentrations of the various compounds, as indicated in the text.
All treatments were carried out in triplicate, including control treatments. All treatment reactions contained a final concentration of 1% DMSO (D5879; Sigma-Aldrich, St Louis, Mo., USA). To quantify vitality, cells were assayed by the MTS CellTiter 96® AQueous One Solution Cell Proliferation Assay (G3580; Promega, Madison, Wis., USA). Absorbance was detected at 490 nm using the GloMax Multidetection System instrument (Promega, Madison, Wis., USA). Data were collected in the form of absorbance units (ABSs) and standardized to obtain the proliferation rate (MTS) through the equation: % cell proliferation=(ABScell culture+compound−ABSculture medium+compound/(ABScell culture+DMSO−ABSculture medium+DMSO)×100.
The 50% inhibition concentration was calculated using the GraphPad Prism software program (GraphPad Software Inc., La Jolla, Calif., USA).

[1] = system: Notch signaling (N1VAL, N3ICD) in DND41 cells; assay: Western blot of N1VAL and N3ICD expression in DND41 cells; type: cell-based, human; conditions: for effect on the expression of N1VAL / concentration at which expression of N1VAL and N3ICD is decreased: DND41 cells, 36 hours, Western blot; for effect on the expression of N1VAL: 0-50 μM
Description: In order to identify new naturally-occurring molecular agents able to modulate Notch signaling, the effects on protein expression of the activated domain of Notch1 (N1VAL), and of the intracellular domain of Notch3 (N3ICD), were evaluated in DND41 cells through
Western blotting assays, following treatment for 36 hours with increasing concentrations (0, 1, 5, 10, 20, 50 μM) of the eight molecules (A-H) previously selected. Functional biochemical screening was performed on T-ALL DND41 cells because they are notoriously sensitive to the block of Notch signaling, and characterized by the constitutive and ligand-independent activation of the Notch1 pathway and by the high expression of Notch3. This makes this cell line a useful experimental model for screening putative Notch inhibitors.
In order to investigate the activity and selectivity of action of the 12 synthetic derivatives of butein, and following the screening scheme described in the first design phase, the efficacy of these molecules was analyzed by verifying the effects of 36 hours of treatment at increasing doses on the activation of Notch signaling and on the proliferation in DND41 cells.
Laemmli Sample Buffer (161-0737; Bio-Rad Laboratories Inc., Hercules, Calif., USA) was added to each cell pellet. Cells were lysed by ultrasonic sonication and to each mixture 5% 2-mercaptoethanol (161-0710; Bio-Rad Laboratories Inc., Hercules, Calif., USA) was added. Samples were denatured at 100° C. for 5 min and protein mixtures were separated by means of Sodium Dodecyl Sulphate-Polyacrylamide Gel Electrophoresis using 8% acrylamide and transferred onto nitrocellulose membranes. After transfer, the membranes pre-saturated in 5% Blot Dry Fat Milk (1706404; Bio-Rad Laboratories Inc., Hercules, Calif., USA) were incubated for 16 hours at +4° C. with the following primary antibodies diluted at 1:1000 in 5% Dry Fat Milk (1706404; Bio-Rad Laboratories Inc., Hercules, Calif., USA): Notch1Val1744 (2421; Cell Signaling Technology, Beverly, Mass., USA), Notch3 (2889; Cell Signaling Technology, Beverly, Mass., USA) and β-actin (sc-47778; Santa Cruz Biotechnology, Santa Cruz, Calif., USA). Subsequently, filters were incubated for 1 hour at room temperature with the following secondary antibodies: anti-rabbit (sc-2004, Santa Cruz Biotechnology, Santa Cruz, Calif., USA) or anti-mouse (sc-2005, Santa Cruz Biotechnology, Santa Cruz, Calif., USA). Chemiluminescence signal detection was performed using the ECL Advanced Detection System substrate (RPN2135; E Healthcare UK Limited, Buckinghamshire, UK).

[2] = Homo sapiens, 36-hour treatments in DND41 cells, mean of triplicate experiments ± S.D., Table 1, read-out: IG50 S.D.
[3] = Homo sapiens, 36-hour treatments in DND41 cells, mean of triplicate experiments ± S.D., Table 2, read-out: IG50 ± S.D.
[4] = Homo sapiens, DND41 cells, MTS assay, 36 hours of treatment, read-out: IG50 (growth inhibition)

For `CC(C)(O)C1Cc2c(ccc3ccc(=O)oc23)O1` (stereo in doubt) [Compound E, (8R)-8-(2-hydroxypropane-2-yl)-8,9-dihydrofuran[2,3-h]chromen-2-one, reference compound], the “effect on cell proliferation” value (DND41 cells; DND41 cells) was “do not significantly affect cell proliferation”, the IC50 (DND41 cells; [2]) was over 50 µM and the “effect on the expression of N1VAL” value [1] was “did not significantly modulate”.
`COc1ccc(C(=O)/C=C/c2ccc(OC)c(OC)c2)c(OC)c1` [Compound 1, 2′,3,4,4′-tetramethoxychalcone] gave an IC50 (DND41 cells; [3]) of 15 ± 3.04 µM.
`COc1ccc(C(=O)/C=C/c2ccc(OC)c(OC)c2)c(O)c1` [Compound 2, 2′-hydroxy-3,4,4′-trimethoxychalcone] gave an IC50 (DND41 cells; [3]) of 31 ± 5.98 µM.
With `COc1ccc(/C=C/C(=O)c2ccc(OC)cc2O)cc1` [Compound 3, 2′-hydroxy-4,4′-dimethoxychalcone] the IC50 (DND41 cells; [3]) was 47.5 ± 1.14 µM.
With `COc1ccc(/C=C/C(=O)c2ccc(OC)cc2OC)cc1` [Compound 4, 2′,4,4′-trimethoxychalcone] the IC50 (DND41 cells; [3]) was 14.4 ± 2.56 µM.
For `COc1ccc(C(=O)/C=C/c2ccc(OC)c(O)c2)c(O)c1` [Compound 5, 2′,3-dihydroxy-4,4′-dimethoxychalcone], the IC50 (DND41 cells; [3]) was 36.2 ± 10.6 µM.
Work on `COc1ccc(C(=O)/C=C/c2ccc(OC)c(OC3CCCCO3)c2)c(O)c1` (centres unmarked) [Compound 5a, 2′-hydroxy-4,4′-dimethoxy-3-(tetrahydropyran-2-yloxy) chalcone] yielded an IC50 (DND41 cells; [3]) of over 50 µM.
With `COc1ccc(/C=C/C(=O)c2ccc(OC3CCCCO3)cc2O)cc1OC` (centres unmarked) [Compound 6a, 2′-hydroxy-3,4-dimethoxy-4′-(tetrahydropyran-2-yloxy)chalcone] the IC50 (DND41 cells; [3]) was over 50 µM.
For `COc1ccc(C(=O)/C=C/c2ccc(O)c(OC)c2)c(O)c1` [Compound 7, 2′,4-dihydroxy-3,4′-dimethoxychalcone], the IC50 (DND41 cells; [3]) was 33.1 ± 1.89 µM.
With `COc1ccc(C(=O)/C=C/c2ccc(OC3CCCCO3)c(OC)c2)c(O)c1` (centres unmarked) [Compound 7a, 2′-hydroxy-3,4′-dimethoxy-4-(tetrahydropyran-2-yloxy)chalcone] the IC50 (DND41 cells; [3]) was 24.4 ± 1.76 µM.
`COc1ccc(C(=O)/C=C/c2ccc(OC3CCCCO3)cc2)c(O)c1` (centres unmarked) [Compound 8a, 2′-hydroxy-4′-methoxy-4-(tetrahydropyran-2-yloxy)chalcone] gave an IC50 (DND41 cells; [3]) of 48.5 ± 3.42 µM.
For `COc1ccc(C(=O)CCc2ccc(O)cc2)c(O)c1` [Compound 8b, 2′,4-dihydroxy-4′-methoxydihydrochalcone], the IC50 (DND41 cells; 36-hour treatments in DND41 cells, mean of triplicate experiments ± S.D., Table 2, read-out: IG50 ± S.D.) was over 50 µM.
Work on `COc1ccc(C(=O)/C=C/c2ccccc2)c(O)c1` [Compound 9, 2′-hydroxy-4′-methoxychalcone] yielded an IC50 (DND41 cells; [3]) of 11.1 ± 0.59 µM.
`COc1cccc(/C=C/C(=O)c2ccc(OC)cc2O)c1` [Compound 10, 2′-hydroxy-3,4′-dimethoxychalcone] showed an IC50 (DND41 cells; [3]) of 21.3 ± 1.72 µM.
`COc1ccc(C(=O)/C=C/c2cccc(O)c2)c(O)c1` [Compound 11, 2′,3-dihydroxy-4′-methoxychalcone] was tested, and the IC50 (DND41 cells; [3]) was 13.6 ± 1.76 µM.
Work on `COc1ccc(C(=O)/C=C/c2cccc(OC3CCCCO3)c2)c(O)c1` (centres unmarked) [Compound 11a, 2′-hydroxy-4′-methoxy-3-(tetrahydropyran-2-yloxy)chalcone] yielded an IC50 (DND41 cells; [3]) of 17.4 ± 1.2 µM.
`COc1ccc(C(=O)/C=C/c2ccccc2O)c(O)c1` [Compound 12, 2,2′-dihydroxy-4′-methoxychalcone] gave an IC50 (DND41 cells; [3]) of 14.2 ± 0.58 µM.
In the case of `COc1ccc(C(=O)/C=C/c2ccccc2OC)c(O)c1` [Compound 13, 2′-hydroxy-2,4′-dimethoxychalcone], the IC50 (DND41 cells; [3]) is reported as 21.8 ± 1.78 µM.
Work on `O=C(/C=C/c1ccc(O)cc1)c1ccccc1O` [Compound 14, 2′,4-dihydroxychalcone] yielded an IC50 (DND41 cells; [3]) of 16.5 ± 0.9 µM.
Compound `O=C(/C=C/c1ccc(OC2CCCCO2)cc1)c1ccccc1O` (centres unmarked) [Compound 14a, 2′-hydroxy-4-(tetrahydropyran-2-yloxy)chalcone] has an IC50 (DND41 cells; [3]) of 48.6 ± 3.42 µM.
In the case of `COc1ccccc1C(=O)/C=C/c1ccc(O)cc1` [Compound 15, 4-hydroxy-2′-methoxychalcone], the IC50 (DND41 cells; [3]) is reported as 16.8 ± 2.71 µM.
In the case of `COc1ccccc1C(=O)/C=C/c1ccc(OC2CCCCO2)cc1` (centres unmarked) [Compound 15a, 2′-methoxy-4-(tetrahydropyran-2-yloxy)chalcone], the IC50 (DND41 cells; [3]) is reported as 31.5 ± 1.46 µM.
`COc1ccc(C(=O)/C=C/c2ccc(O)cc2)c(OC)c1` [Compound 16, 4-hydroxy-2′,4′-dimethoxychalcone] was tested, and the IC50 (DND41 cells; [3]) was 13.8 ± 0.61 µM, the IC50 (DND41 cells; [4]) was over 13 µM and the “concentration at which expression of N1VAL and N3ICD is decreased” value [1] was 2.5 µM.
`COc1ccc(C(=O)/C=C/c2ccc(OC3CCCCO3)cc2)c(OC)c1` (centres unmarked) [Compound 16a, 2′,4′-dimethoxy-4-(tetrahydropyran-2-yloxy)chalcone] was tested, and the IC50 (DND41 cells; [3]) was 32.6 ± 0.92 µM.
With `COc1ccc(C(=O)/C=C/c2ccc(O)cc2)cc1` [Compound 17, 4-hydroxy-4′-methoxychalcone] the IC50 (DND41 cells; [3]) was 19.5 ± 0.56 µM, the IC50 (DND41 cells; [4]) was over 13 µM and the “concentration at which expression of N1VAL and N3ICD is decreased” value [1] was 2.5 µM.
In the case of `COc1ccc(C(=O)/C=C/c2ccc(OC3CCCCO3)cc2)cc1` (centres unmarked) [Compound 17a, 4′-methoxy-4-(tetrahydropyran-2-yloxy)chalcone], the IC50 (DND41 cells; [3]) is reported as 28.8 ± 0.29 µM.
In the case of `O=C1c2c(O)cc(O)cc2O[C@H](c2ccc(O)c(O)c2)[C@H]1O` [Compound A, (2R,3R)-2-(3,4-dihydroxyphenyl)-3,5,7-trihydroxy-2,3-dihydrochromen-4-one, reference compound], the “effect on cell proliferation” value (DND41 cells; DND41 cells) is reported as “do not significantly affect cell proliferation” and the IC50 (DND41 cells; [2]) is reported as over 50 µM.
With `CC(C)=CCc1c(O)ccc(C(=O)/C=C/c2ccc(O)cc2)c1O` [Compound B, (E)-1-[2,4-dihydroxy-3-(3-methylbut-2-enyl)phenyl]-3-(4-hydroxyphenyl) prop-2-en-1-one, reference compound] the IC50 (DND41 cells; [2]) was 13.9 µM, the IC50 (DND41 cells; [4]) was 13.9 ± 2.7 µM and the “inhibitory activity of Notch” value ([1]; screening carried out by the present inventors) was “did not show any inhibitory activity”.
`O=C(/C=C/c1ccc(O)c(O)c1)c1ccc(O)cc1O` [Compound C, (E)-1-(2,4-dihydroxyphenyl)-3-(3,4-dihydroxyphenyl)prop-2-en-1-one, reference compound] was tested, and the IC50 (DND41 cells; [2]) was 7.79 µM and the IC50 (DND41 cells; [4]) was 7.79 ± 1.73 µM.
In the case of `COc1c2occc2cc2ccc(=O)oc12` [Compound D, 9-methoxyfuran[3,2-g]chromen-7-one, reference compound], the “effect on cell proliferation” value (DND41 cells; DND41 cells) is reported as “do not significantly affect cell proliferation”, the IC50 (DND41 cells; [2]) is reported as over 50 µM and the “effect on the expression of N1VAL” value [1] is reported as “did not significantly modulate”.
With `COc1ccc2oc3cccc(O)c3c(=O)c2c1` [Compound F, 1-hydroxy-7-methoxy-9H-xanthen-9-one, reference compound] the “effect on cell proliferation” value (DND41 cells; DND41 cells) was “do not significantly affect cell proliferation”, the IC50 (DND41 cells; [2]) was over 50 µM and the “effect on the expression of N1VAL” value [1] was “did not significantly modulate”.
Compound `O=c1c(O)c(-c2ccccc2)oc2cc(O)cc(O)c12` [Compound H, 3,5,7-trihydroxy-2-phenylchromen-4-one, reference compound] has an IC50 (DND41 cells; [2]) of 22.6 µM and an IC50 (DND41 cells; [4]) of 22.6 ± 1.89 µM.
